# Measurements published in patent US10473670B2 (University of Kentucky Research Foundation, priority 2016, dated 2019).
# “Also recorded” adds a separate entry of the source.
# Experiments:
# C57BL/6 mice [1] = assay: Chronic SR 48692 treatment of HFD-fed mice: body weight and food intake; format: in vivo; settings: wild type mice fed HFD
# Excerpt: FIGS. 13A-D show graphs and images illustrating that NT promotes intestinal cell lipid absorption or accumulation, while NT deficiency reduces intestinal lipid absorption A. Proximal intestines from mice given saline, olive oil, or olive oil+SR 48692 were collected and TG levels quantified as described above (n=8). Graph presents the fold change vs. control mice. * p<0.05 vs. control mice; † p<0.05 vs. mice with olive oil only. B. Male NT^+/+ and NT^−/− mice (n=4) on normal chow were fasted overnight. Mice were injected with either saline or SR 48692 (2.5 mg/kg, i.p). Thirty min after the injection, mice were given olive oil (10 μl/g) by oral gavage and then sacrificed. The proximal small bowel was excised and TG content measured. *p<0.05 vs. saline in NT^+/+ and NT^−/− mice; † p<0.05 vs. olive oil only in NT^+/+ mice; ‡ p<0.05 vs. olive oil only in NT^+/+ mice. C. Weekly body weight was measured in male wild type C57BL/6 mice fed HFD and treated with SR 48692 (2.5 mg/kg diluted in diH2O and administered by oral gavage twice a day) or vehicle (vehicle n=12; SR 48692 n=13). […] D. Weekly food intake was measured in male wild type C57BL/6 mice (n=12-13) fed HFD and chronically treated with either SR 48692 or vehicle. […]
# All procedures were approved by the Institutional Animal Care and Use Committee of the University of Kentucky. […] Body weight and food intake were measured weekly. […]
# AMPK [2] = assay: Western blot of p-AMPK in proximal intestinal mucosa after olive oil gavage; format: in vivo; settings: mice after olive oil gavage, with or without SR 48692 pretreatment
# Experimental: FIGS. 2A-M includes images and graphs illustrating NT deficiency reduces intestinal lipid absorption. A. (left panel) Fecal triglyceride (TG) was analyzed in male mice fed a high-fat diet (HFD) for 24 wks (n=3); * p=0.05 vs NT^+/+ mice; (right panel) Fecal weight was measured in male NT^+/+ and NT^−/− mice (n=7-9) fed either normal chow (NC) or HFD for 24 wks; there was no significant difference between genotypes. B. Oil red O (ORO) staining of proximal intestines from male mice (6-mo-old) under normal chow fed with or without olive oil by gavage after overnight fasting (n=3). C. Levels of ^13C18-oleic acid (OA) in male mice (5-mo-old) under normal chow fed with ^13C18-OA mixed in olive oil by gavage after an overnight fast was analyzed by nanospray FT-MS (n=3-4). Left panel, * p<0.05 vs. NT^+/+ mice. […] D. ORO staining of proximal intestines from male mice (5-mo-old) following gavage with or without olive oil plus NT after an overnight fast (left panel); TG was quantified (right panel) (n=5). * p<0.05 vs. Saline in NT^+/+ and NT^−/− mice, respectively; † p<0.05 vs. olive oil in NT^−/− mice; ‡ p<0.05 vs. olive oil in NT^+/+ mice. […] Densitometric quantification of p-AMPK was normalized to total AMPK and is presented as fold change vs. p-AMPK in NT^+/+ (right panel, n=9). * p<0.05 vs. NT^+/+. F. Protein extracts from mucosal scrapings of samples were analyzed by western blotting (left panel). […]
# NT^+/+ and NT^−/− mice = assay: Acute SR 48692 treatment repeated in NT+/+ and NT-/- mice: proximal intestinal TG; format: in vivo; settings: 2.5 mg/kg ip 30 min before olive oil
# Excerpt: (§1) FIGS. 13A-D show graphs and images illustrating that NT promotes intestinal cell lipid absorption or accumulation, while NT deficiency reduces intestinal lipid absorption A. Proximal intestines from mice given saline, olive oil, or olive oil+SR 48692 were collected and TG levels quantified as described above (n=8). Graph presents the fold change vs. control mice. * p<0.05 vs. control mice; † p<0.05 vs. mice with olive oil only. B. Male NT^+/+ and NT^−/− mice (n=4) on normal chow were fasted overnight. Mice were injected with either saline or SR 48692 (2.5 mg/kg, i.p). Thirty min after the injection, mice were given olive oil (10 μl/g) by oral gavage and then sacrificed. The proximal small bowel was excised and TG content measured. *p<0.05 vs. saline in NT^+/+ and NT^−/− mice; † p<0.05 vs. olive oil only in NT^+/+ mice; ‡ p<0.05 vs. olive oil only in NT^+/+ mice. C. Weekly body weight was measured in male wild type C57BL/6 mice fed HFD and treated with SR 48692 (2.5 mg/kg diluted in diH2O and administered by oral gavage twice a day) or vehicle (vehicle n=12; SR 48692 n=13). BW slopes were compared: * p<0.05 vehicle vs. SR treatment. D. Weekly food intake was measured in male wild type C57BL/6 mice (n=12-13) fed HFD and chronically treated with either SR 48692 or vehicle. […] All data are mean+/−SD. […]
# C57BL/6 mice [3] = assay: Acute SR 48692 treatment: proximal intestinal TG content after olive oil gavage; format: in vivo; settings: 2.5 mg/kg ip 30 min before olive oil gavage
# Excerpt: as §1
# [4] = test system: mTORC1 and ERK1/2 signaling; assay: Western blot of p-S6K1 and p-ERK1/2 in BON cells; format: cell-based, human; settings: pretreatment with CC 10 μM, AICAR 1 mM 3 h
# Experimental: FIGS. 16A-D show graphs and images illustrating Cross-talk of AMPK and mTORC1 signaling. A. Diagram of cross-talk of AMPK and mTORC1 signaling. B. Western blot analysis of BON cells treated with or without AICAR (left panel) or 1 mM AICAR and CC (10 μM) (right panel) for 3 h. C. NT EIA (upper panel) and western blotting (lower panel) on BON cells expressing control vector and myc-raptor S722A/S792A treated with AICAR (1 mM) for 3 h. D. NT EIA (upper panel) and western blotting (lower panel) on BON cells expressing control vector and NTC and TSC2 siRNA treated with AICAR (1 mM) for 3 h. *p<0.05 vs. control in vector, †p<0.05 vs. AICAR in vector (C); *p<0.05 vs. control in NTC siRNA, †p<0.05 vs. control in NTC siRNA, ‡ p<0.05 vs. AICAR in NTC siRNA (D). n=6. All data are mean+/−SD.
# AMPK activation inhibits mTORC1 through raptor, a component of mTORC1, or TSC2, a negative regulator of mTORC1 signaling. […] Moreover, a stable BON overexpression cell line was generated with a mutant raptor vector in which both Ser722 and Ser792 (AMPK phosphorylation sites) are replaced by alanine. […] Together, these findings further indicate the interaction of AMPK, mTORC1 and ERK signaling in the regulation of NT secretion.
# AMPK [5] = assay: Western blot of p-AMPK in FHs 74 Int cells; format: cell-based, human; settings: FHs 74 Int cells treated with oleate 1 h
# Experimental: (§2) G. Human small intestinal cells (FHs74Int) (left panel) and RIE-1 cells (right panel) were treated with the indicated concentrations of oleate for 1 h and lysates were analyzed by western blotting. […] All data are mean+/−SD. Experiments in vitro were at least repeated three times.
# (§3) Tissues and cells were lysed with lysis buffer (Cell Signaling Technology), and equal amounts of protein were resolved on 4-12% NuPAGE BisTris gels (Life Technologies) and electrophoretically transferred to polyvinylidene difluoride (PVDF) membranes; the membranes were incubated with primary antibodies overnight at 4° C. followed by secondary antibodies conjugated with horseradish peroxidase. Membranes were developed using chemiluminescence (ECL) Western Blotting System from GE Healthcare Life Science (Piscataway, N.J.) and Thermo Scientific (Waltham, Mass.).
# AMPK [6] = assay: Western blot of p-AMPK in RIE-1 cells; format: cell-based, rat; settings: RIE-1 cells treated with oleate 1 h
# Experimental: as §2
# All data are mean+/−SD. Experiments were repeated at least three times.
# as §3
# STC-1 cells = assay: NT release from STC-1 cells (NT EIA); format: cell-based, mouse; settings: OA 0.25 mM, phorbol myristate acetate 100 nM
# Excerpt: FIGS. 15A-B show graphs and images illustrating that FFAR1 and FFAR4 agonists increase AMPK activity. A. NT IF (left panel), NT EIA (middle panel, *p<0.05 vs. control) and western blotting (right panel) of STC-1 cells. B. Real-time PCR. GAPDH was used as the internal control (BON cell expression was arbitrarily set at 1). All data are mean+/−SD.
# FFAR1 (previously known as GPR40) and FFAR4 (previously known as GPR120) are medium- to long-chain FFA G-protein-coupled receptors that have been implicated in the regulation of energy homeostasis and hormone secretion.
smiles,measurement,setting,value
COc1cccc(OC)c1-c1cc(C(=O)NC2(C(=O)O)C3CC4CC(C3)CC2C4)nn1-c1ccnc2cc(Cl)ccc12 (stereo not shown) [SR 48692],body weight gain,C57BL/6 mice [1]; 2.5 mg/kg oral gavage twice a day for 13 weeks,significantly attenuated body weight gain
same,food intake (cumulative and weekly),"C57BL/6 mice [1]; 2.5 mg/kg oral gavage twice a day, 2.5 mg/kg",without altering food intake; also recorded: did not show a significant difference
same,p-AMPK expression in proximal intestine,AMPK [2],restored the p-AMPK expression to control levels
same,lipid absorption after olive oil administration,NT^+/+ and NT^−/− mice; NT-/- mice,did not further decrease lipid absorption
same,intestinal FA absorption (as measured by TG accumulation),NT^+/+ and NT^−/− mice; wild type (NT+/+) mice,inhibited intestinal FA absorption
same,intestinal FA absorption following olive oil gavage (proximal intestine TG),C57BL/6 mice [3],decreased intestinal FA absorption
c1cc(-c2cnn3cc(-c4ccc(OCCN5CCCCC5)cc4)cnc23)ccn1 [compound C],effect of AICAR on p-S6K1 and p-ERK1/2,[4],attenuated this effect
"CCCCCCCC/C=C\CCCCCCCC(=O)[O-].[Na+] [oleate, Oleate sodium]",p-AMPK,AMPK [5],led to an increase in p-AMPK
same,p-AMPK,AMPK [6],led to an increase in p-AMPK
CCCCCCCCCCCCCC(=O)O[C@@H]1[C@@H](C)[C@@]2(O)[C@@H](C=C(CO)C[C@]3(O)C(=O)C(C)=C[C@@H]23)[C@@H]2C(C)(C)[C@]12OC(C)=O [phorbol myristate acetate],NT release,STC-1 cells,stimulated NT release
